This is an account of results in patent US10045968B2, “Bicyclic compound, production and use thereof” (TOBIRA THERAPEUTICS, INC., priority 2001, dated 2018).

SMILES strings stand for the structures.

For the first data set, the target named is T1, human CCR5 (Homo sapiens, UniProt P51681).
T1 construct: expressed in transfected cells; host or cells: CHO-K1 cells, stably transfected with pCKR5 (pcDNA3.1 backbone), Geneticin-selected
T1 sequence (P51681 whole entry): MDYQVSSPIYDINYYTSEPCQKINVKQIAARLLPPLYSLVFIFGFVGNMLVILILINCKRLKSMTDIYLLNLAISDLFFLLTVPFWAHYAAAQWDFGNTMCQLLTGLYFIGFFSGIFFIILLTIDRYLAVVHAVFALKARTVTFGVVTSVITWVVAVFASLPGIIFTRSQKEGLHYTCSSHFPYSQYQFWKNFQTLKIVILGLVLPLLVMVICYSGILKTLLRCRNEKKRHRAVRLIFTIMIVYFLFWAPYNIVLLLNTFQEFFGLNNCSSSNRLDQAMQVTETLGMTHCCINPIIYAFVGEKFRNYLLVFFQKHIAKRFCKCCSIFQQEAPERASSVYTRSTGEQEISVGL
Briefly: Inhibition of [125I]-RANTES binding to CCR5/CHO cells (CCR5 antagonist activity). To be noted: 40 min, test compound 1 μM, 100 pM [125I]-RANTES as ligand, room temperature, read-out: Binding Inhibitory Ratio (%). The method, then: (1) Cloning of Human CCR5 Chemokine Receptor Cloning of CCR5 gene was conducted from human spleen cDNA by PCR method. Using cDNA (0.5 ng) from spleen (Toyobo, QUICK-Clone cDNA) as a genetic template, primer sets prepared by referring to CCR5 gene nucleotide sequence described by Samson et al. (Biochemistry 35 (11), 3362-3367 (1996), i.e., (2) Preparation of Expression Plasmid of Human CCR5 […] The DNA fragments and an expression plasmid for animal cells pcDN A3.1 (Funakoshi), which was previously digested by XbaI and BamHI, were mixed and ligated by DNA Ligation Kit Ver. 2 (Takara Shuzo). Transformation of E. coli JM109 competent cells (Takara Shuzo) gave plasmid pCKR5. (3) Introduction of the Human CCR5 Expression Plasmid into CHO-K1 Cells and Expression Thereof […] The cells were washed with PBS (Lifetech Oriental), centrifuged (1000 rpm, 5 minutes), and resuspended in PBS. The DNA was introduced into the cells using Gene Pulser (BioRad) according to the following conditions. […] The cells were diluted to a concentration of 10^4 cells/ml, and inoculated in 96 well plate (Becton Dickinson), to obtain Geneticin-resistant cells. The Geneticin-resistant cells ware grown in 96 well plate (Becton Dickinson), and CCR5 expressing cells were selected from the resistant cells. Namely, in an assay buffer, (Ham F12 medium containing 0.5% BSA, and 20 mM HEPES (Wako Pure Chemical Ind., pH 7.2)), containing 200 pM [^125I]-RANTES (Amersham) as a ligand, the cells were subjected to binding reaction at room temperature for 40 minutes. The well plate containing the cells was washed with ice-cooled PBS, added with 1M NaOH in an amount of 50 μl/well and stirred. The cells to which the ligand bound specifically, i.e., CCR5/CHO cells, were selected by measurement of radioactivity by γ-counter. (4) Evaluation of Compounds Based on CCR5 Antagonist Activity The CCR5/CHO cells were inoculated in 96 well microplate at a concentration of 5×10^4 cells/well, and grown for 24 hours. After removal of the medium by aspiration, to each well was added an assay buffer containing a test compound (1 μM), and (^125I)/RANTES (Amersham) used as a ligand at a concentration of 100 pM. The mixture was subjected to the reaction at room temperature for 40 minutes. After removal of the assay buffer by aspiration, each well was washed with cooled PBS twice. Then, 200 μl MicroScint 20 (Packerd) was added to each well, and the radioactivity of each well was measured by TopCount (Packard). According to the method above, inhibitory ratios to CCR5 binding of the test compounds were determined.
As to `CCCCOCCOc1ccc(-c2ccc3c(c2)C=C(C(=O)Nc2ccc(SCc4nncn4CCC)cc2)CCCN3CC(C)C)cc1` [Compound 46, 8-[4-(2-butoxyethoxy)phenyl]-1-isobutyl-N-[4-[[(4-propyl-4H-1,2,4-triazol-3-yl)methyl]thio]phenyl]-1,2,3,4-tetrahydro-1-benzazocine-5-carboxamide], the inhibition at 1 µM came out at 99%.
The same measure, in the same setting: the value for `CCCCOCCOc1ccc(-c2ccc3c(c2)C=C(C(=O)Nc2ccc([S+]([O-])Cc4cncn4CCC)cc2)CCCN3c2ccccc2)cc1` (stereo not drawn) [Compound 35, 8-[4-(2-butoxyethoxy)phenyl]-1-phenyl-N-[4-[[[1-propylimidazol-5-yl]methyl]sulfinyl]phenyl]-1,2,3,4-tetrahydro-1-benzoazocine-5-carboxamide] was 100%; that for `CCCCOCCOc1ccc(-c2ccc3c(c2)C=C(C(=O)Nc2ccc(CN(C)C4CCOCC4)cc2)CCCN3CCC)cc1` [Compound 2, 8-[4-(2-butoxyethoxy)phenyl]-1-propyl-N-[4-[[N-methyl-N-(tetrahydropyran-4-yl)amino]methyl]phenyl]-1,2,3,4-tetrahydro-1-benzazocine-5-carboxamide] was 96%; that for `CCCCOCCOc1ccc(-c2ccc3c(c2)C=C(C(=O)Nc2ccc([S+]([O-])Cc4cncn4CCC)cc2)CCCCN3CC(C)C)cc1` (single isomer, unassigned; (-)) [Compound 26, (−)-9-[4-(2-butoxyethoxy)phenyl]-1-isobutyl-N-[4-[[[1-propylimidazol-5-yl]methyl]sulfinyl]phenyl]-2,3,4,5-tetrahydro-1H-1-benzoazonin-6-carboxamide] was 100%.
Take `CCCCOCCOc1ccc(-c2ccc3c(c2)C=C(C(=O)Nc2ccc([S+]([O-])Cc4c(C)ncn4CCC)cc2)CCCN3CC(C)C)cc1` (stereo not drawn) [Compound 37, 8-[4-(2-butoxyethoxy)phenyl]-1-isobutyl-N-[4-[[[4-methyl-1-propylimidazol-5-yl]methyl]sulfinyl]phenyl]-1,2,3,4-tetrahydro-1-benzoazocine-5-carboxamide]: the inhibition at 1 µM turned out to be 100%.

Staying with this data set, now noted: test compound 1 μM, 100 pM [125I]-RANTES as ligand, room temperature, 40 minutes.
With `CCCOCCOc1ccc(-c2ccc3c(c2)C=C(C(=O)Nc2ccc([S@@+]([O-])Cc4cncn4CCC)cc2)CCCN3CCC)cc1.CS(=O)(=O)O` [Compound 45, (S)-(−)-8-[4-(2-propoxyethoxy)phenyl]-1-propyl-N-[4-[[(1-propyl-1H-imidazol-5-yl)methyl]sulfinyl]phenyl]-1,2,3,4-tetrahydro-1-benzoazocine-5-carboxamide/methanesulfonate], the “Binding Inhibitory Ratio (%)” value is 96%.
On the same count and under the same terms, the value for `CCCCOCCOc1ccc(-c2ccc3c(c2)C=C(C(=O)Nc2ccc([S+]([O-])Cc4cncn4CCC)cc2)CCCN3CC(C)CO)cc1` (stereo not drawn) [Compound 32, 8-[4-(2-butoxyethoxy)phenyl]-1-(2-methyl-3-hydroxy)propyl-N-[4-[[[1-propylimidazol-5-yl]methyl]sulfinyl]phenyl]-1,2,3,4-tetrahydro-1-benzoazocine-5-carboxamide] was 100%; that for `CCCCOCCOc1ccc(-c2ccc3c(c2)C=C(C(=O)Nc2ccc(SCc4cncn4CCC)cc2)CCCN3CC(C)C)cc1` [Compound 6] was 98%.
As to `CCCCOCCOc1ccc(-c2ccc3c(c2)C=C(C(=O)Nc2ccc([S+]([O-])Cc4cncn4CCC)cc2)CCCN3CCC)cc1` (stereo not drawn) [Compound 4, 8-[4-(2-butoxyethoxy)phenyl]-1-propyl-N-[4-[[[1-propylimidazol-5-yl]methyl]sulfinyl]phenyl]-1,2,3,4-tetrahydro-1-benzazocine-5-carboxamide], the “Binding Inhibitory Ratio (%)” value turned out to be 100%.
Regarding `CCCCOCCOc1ccc(-c2ccc3c(c2)C=C(C(=O)Nc2ccc(SCc4cncn4CCC)cc2)CCCN3CC(C)C)cc1` [Compound 8, 8-[4-(2-butoxyethoxy)phenyl]-I-isobutyl-N-[4-[[[1-propyl-1H-imidazol-5-yl]methyl]sulfanyl]phenyl]-1,2,3,4-tetrahydro-1-benzazocine-5-carboxamide], the “Binding Inhibitory Ratio (%)” value is 99%.

Test system in the next data set: not given
Test: not given
Details: not given
A word on the melting point: it is the temperature, or range, at which the solid turns liquid. On to `CCCCOCCOc1ccc(-c2ccc3c(c2)C=C(C(=O)Nc2ccc([S+]([O-])Cc4nncn4CCC)cc2)CCCN3CCC)cc1` (stereo not drawn) [Compound 51, 8-[4-(2-butoxyethoxy)phenyl]-1-propyl-N-[4-[[(4-propyl-4H-1,2,4-triazol-3-yl)methyl]sulfinyl]phenyl]-1,2,3,4-tetrahydro-1-benzazocine-5-carboxamide], for which the melting point was in the range of 167 to 170 °C.
`CCCCOCCOc1ccc(-c2ccc3c(c2)C=C(C(=O)Nc2ccc([S+]([O-])Cc4nccn4CCCC(=O)OCC)cc2)CCCN3CC(C)C)cc1` (stereo not drawn) [Compound 54, ethyl 4-(2-(((4-(((8-(4-(2-butoxyethoxy)phenyl)-1-isobutyl-1,2,3,4-tetrahydro-1-benzazocine-5-yl)carbonyl)amino)phenyl)sulfinyl)methyl)imidazol-1-yl)butanoate]: the melting point lay within 133.5 to 134.5 °C.
`CCCCOCCOc1ccc(-c2ccc3c(c2)C=C(C(=O)Nc2ccc(SCc4nccn4CCCC(=O)OCC)cc2)CCCN3CC(C)C)cc1` [Compound 33, ethyl 4-(2-(((4-(((8-(4-(2-butoxyethoxy)phenyl)-1-isobutyl-1,2,3,4-tetrahydro-1-benzoazocine-5-yl)carbonyl)amino)phenyl)sulfanyl)-methyl)imidazol-1-yl)butanoate] had a melting point of 130 to 131 °C.
In turn, `CCCCOCCOc1ccc(-c2ccc3c(c2)C=C(C(=O)Nc2ccc([S+]([O-])Cc4nncn4CCC)cc2)CCCN3CC(C)C)cc1` (stereo not drawn) [Compound 47, 8-[4-(2-butoxyethoxy)phenyl]-1-isobutyl-N-[4-[[(4-propyl-4H-1,2,4-triazol-3-yl)methyl]sulfinyl]phenyl]-1,2,3,4-tetrahydro-1-benzazocin-5-carboxamide] gave a melting point of 105 to 110 °C.
With `CCCCOCCOc1ccc(-c2ccc3c(c2)C=C(C(=O)Nc2ccc(SCc4nncn4CCC)cc2)CCCN3CC(C)C)cc1` [Compound 46, 8-[4-(2-butoxyethoxy)phenyl]-1-isobutyl-N-[4-[[(4-propyl-4H-1,2,4-triazol-3-yl)methyl]thio]phenyl]-1,2,3,4-tetrahydro-1-benzazocine-5-carboxamide], the melting point fell in the range of 122 to 126 °C.
